Calls of active or inactive are those of the source.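 How the source made its calls: active means growth-inhibition EC50 no more than tenfold above the top tested dose; inconclusive means flat fit between 30% and 70% inhibition, or unreliable fit; inactive means EC50 more than tenfold above the top tested dose.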
System: E. coli NEB5alpha growth, BacTiter-Glo luminescence, 4 h
Assay: antibacterial activity against E. coli NEB5alpha – luminescence, counter-screen for MEX-5/POS-1 RNA-binding inhibitor project, dose response (AID 1959);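 further: pUC19-transformed ampicillin-resistant cells grown in LB with ampicillin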

| SMILES | EC50 |
| --- | --- |
| CCN(CC)C(=O)CSc1nnc2nnc3cc(Cl)ccc3n12 | > 11 µM (inactive) |
| COc1ccc(NC(=O)C2Cc3ccccc3CN2C(=O)c2ccccc2)cn1 (configuration not stated) | > 11 µM (inactive) |
| CN1C(=O)NC(c2ccccc2[N+](=O)[O-])C2=C1CCCC2=O (configuration not stated) | > 11 µM (inactive) |
| COC(=O)c1cc(C(=O)OC)cc(-n2c(C)cc(C(=O)CC#N)c2C)c1 | > 11 µM (inactive) |
| Nc1c(C(=O)Nc2nc3ccccc3s2)sc2nc(-c3cccs3)ccc12 | > 11 µM (inactive) |
| CC1(CCl)N([O-])C2=C(CCCC2)[N+]1=O (configuration not stated) | > 11 µM (inactive) |
| Fc1ccc(-c2nc3c(Cl)cc(C(F)(F)F)cn3c2Cl)cc1 | > 11 µM (inactive) |
| COc1ccc(N=Cc2c(O)n(Cc3ccccc3)c(=S)[nH]c2=O)c(OC)c1 | > 11 µM (inactive) |
| Cc1ccc(N=Nc2[nH]c3ccccc3c2O)cc1 | > 11 µM (inactive) |
| COc1cc(/C=C2\C(=O)NN(c3ccccc3)C2=O)cc([N+](=O)[O-])c1O | > 11 µM (inactive) |
| O=C(Nc1ccccc1O)c1cccc(S(=O)(=O)Nc2ccccc2O)c1 | > 11 µM (inactive) |
| CN1C(=O)/C(=C/c2ccc3c(c2)OCO3)N=C1c1ccccc1 | > 11 µM (inactive) |
| Cn1c(O)c(C=NCCCCCCCCCCC(=O)O)c(=O)n(C)c1=O | > 11 µM (inactive) |
| CCN(CC)C(=O)c1ccc2c(c1)C1C=CCC1C(C(=O)O)N2 (configuration not stated) | > 11 µM (inactive) |
| Cc1ccc(Cl)c2c1=NC(=O)C=2c1[nH]c(=S)[nH]c1O | > 11 µM (inactive) |
| C[C@@H]1O[C@@H](OC2C(O)C(OCCc3ccc(O)c(O)c3)OC(CO)C2OC(=O)/C=C/c2ccc(O)c(O)c2)[C@H](O)[C@H](O)[C@H]1O (some centres not stated) | > 11 µM (inactive) |
| Cc1cc(/C=C2\C(=O)NC(=O)N(Cc3ccco3)C2=O)c(C)n1-c1ccc(C(=O)O)cc1 | > 11 µM (inactive) |
| CC(C)CNC(=O)c1ccc(C2SCC(=O)N2Cc2ccccc2)cc1 (configuration not stated) | > 11 µM (inactive) |
| CCC(=O)OC1(C)C(=O)C2=COC(c3ccc(OC)cc3)=CC2=C(Br)C1=O (configuration not stated) | > 11 µM (inactive) |

| SMILES | EC50 |
| --- | --- |
| CC1(OC(=O)c2cnc3ccccc3n2)C(=O)C=C2C=C(C3CC3)OC=C2C1=O (configuration not stated) | > 11 µM (inactive) |
| Cc1ccc(CNC(=O)/C(C#N)=C\c2ccc(N(C)C)cc2)cc1 | > 11 µM (inactive) |
| O=c1[nH]c(=O)n(Cc2ccccc2Cl)c(O)c1C=Nc1ccc(F)cc1 | > 11 µM (inactive) |
| O=C1NC(=O)C(=Cc2cn(CCOc3ccc4c(c3)OCO4)c3ccccc23)C(=O)N1 | > 11 µM (inactive) |
| COc1ccc(C2CC(c3cccs3)=NN2c2ccc(C=O)cc2)cc1 (configuration not stated) | > 11 µM (inactive) |
| COCCNC(=O)Cn1cc(/C=C2\C(=O)NC(=O)N(c3ccccc3F)C2=O)c2ccccc21 | > 11 µM (inactive) |
| COc1ccc(C(=O)/C=C/Nc2ccc([N+](=O)[O-])cc2C)cc1OC | > 11 µM (inactive) |
| COc1cccc(NC(=O)c2ccccc2Br)c1 | > 11 µM (inactive) |
| NC(=O)C[n+]1cccc2ccccc21 | > 11 µM (inactive) |
| COc1ccc(S(=O)(=O)Nc2ccc(O)c(Sc3ncn[nH]3)c2)cc1 | > 11 µM (inactive) |
| Cc1cc(/C=C2\C(=O)NC(=O)N(c3ccccc3)C2=O)c(C)n1-c1ccc(C(=O)O)c(Cl)c1 | > 11 µM (inactive) |
| Cc1n[nH]c(C)c1Sc1ccccc1N=Cc1cc(Cl)cc([N+](=O)[O-])c1O | > 11 µM (inactive) |
| Cc1ccc(NC(=O)CN2C(=O)S/C(=C\c3cc(C)n(-c4cccc(C(=O)O)c4)c3C)C2=O)cc1 | > 11 µM (inactive) |
| CCCCN1C(=O)/C(=C2/Sc3ccccc3N2C)S/C1=N\c1ncn[nH]1 | > 11 µM (inactive) |
| Cc1ccc(Cl)c2c(N=Nc3ccccc3)c(O)[nH]c12 | > 11 µM (inactive) |
| O=C(/C=C/c1ccc([N+](=O)[O-])o1)NNC(=O)c1ccc(F)cc1 | 0.232 µM |
| O=C(NNC(=O)c1cnccn1)c1ccc(Cl)cc1 | > 11 µM (inactive) |
| Cc1noc(C)c1S(=O)(=O)NC1CCN(Cc2ccccc2)CC1 | > 11 µM (inactive) |

Reference: PubChem BioAssay AID1959 (Broad Institute, 2009)
